Measurements taken from US10759793B2, “2-(pyrazolopyridin-3-yl)pyrimidine derivatives as JAK inhibitors” (ALMIRALL, S.A., priority 2015, dated 2020).

Experiments:
Assay type in all cases: biochemical
[1] = biological target: JAK3 (Homo sapiens (Human), UniProt P52333); assay: In vitro JAK kinase assay (TR-FRET), JAK3; conditions: catalytic domain aa 795-1124, GST-fusion; ATP 0.6 μM; peptide 140 nM; 30 minutes at room temperature
In short: (§1)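 Each human JAK enzyme assayed on biotinylated poly(GT) peptide substrate, reaction 30 min at room temperature. Phosphorylation detected by TR-FRET after a 3 h detection incubation.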

[2] = biological target: JAK2 (Homo sapiens (Human), UniProt O60674); assay: In vitro JAK kinase assay (TR-FRET), JAK2; conditions: catalytic domain aa 826-1132, GST-fusion; ATP 0.2 μM; peptide 20 nM; 30 minutes at room temperature
JAK2, sequence (O60674 826-1132): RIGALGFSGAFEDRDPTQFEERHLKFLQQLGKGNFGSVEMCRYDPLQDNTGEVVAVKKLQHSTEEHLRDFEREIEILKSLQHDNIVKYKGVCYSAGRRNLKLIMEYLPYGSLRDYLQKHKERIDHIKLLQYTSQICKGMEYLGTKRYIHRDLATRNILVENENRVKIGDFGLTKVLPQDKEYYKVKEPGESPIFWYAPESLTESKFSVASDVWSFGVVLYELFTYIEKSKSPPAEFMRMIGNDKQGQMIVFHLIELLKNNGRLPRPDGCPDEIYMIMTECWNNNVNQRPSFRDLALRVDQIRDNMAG
In short: as §1

[3] = biological target: JAK1 (Homo sapiens (Human), UniProt P23458); assay: In vitro JAK kinase assay (TR-FRET), JAK1; conditions: catalytic domain aa 850-1154, GST-fusion; ATP 3 μM; peptide 60 nM; 30 minutes at room temperature
JAK1, sequence (P23458 850-1154): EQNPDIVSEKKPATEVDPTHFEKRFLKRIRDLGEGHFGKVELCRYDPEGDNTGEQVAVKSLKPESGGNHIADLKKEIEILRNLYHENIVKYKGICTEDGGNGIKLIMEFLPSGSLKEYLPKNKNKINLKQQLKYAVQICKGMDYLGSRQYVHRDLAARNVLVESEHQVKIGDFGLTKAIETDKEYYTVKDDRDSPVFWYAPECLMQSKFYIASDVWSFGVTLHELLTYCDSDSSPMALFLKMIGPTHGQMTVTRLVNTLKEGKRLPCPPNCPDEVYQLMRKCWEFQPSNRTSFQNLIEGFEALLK
In short: as §1

JAK3, sequence (P52333 795-1124): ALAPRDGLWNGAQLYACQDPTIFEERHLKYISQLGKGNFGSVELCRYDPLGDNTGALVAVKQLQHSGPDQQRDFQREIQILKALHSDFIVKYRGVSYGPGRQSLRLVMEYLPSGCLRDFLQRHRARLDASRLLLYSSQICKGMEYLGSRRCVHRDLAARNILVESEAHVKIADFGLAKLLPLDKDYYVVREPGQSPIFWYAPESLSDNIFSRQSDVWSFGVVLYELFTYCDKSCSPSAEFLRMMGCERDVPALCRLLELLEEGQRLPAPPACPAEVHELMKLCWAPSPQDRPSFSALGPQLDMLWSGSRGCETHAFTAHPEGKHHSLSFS

Row | SMILES | IC50 [1] [nM] | IC50 [2] [nM] | IC50 [3] [nM]
1 | COC[C@@H](C)Oc1nc(-c2cnn3ccccc23)nc(N[C@@H]2CCCN(C(=O)CO)C2)c1F [Example 60, 2-[(3R)-3-({5-Fluoro-6-[(1R)-2-methoxy-1-methylethoxy]-2-pyrazolo[1,5-a]pyridin-3-ylpyrimidin-4-yl}amino)piperidin-1-yl]-2-oxoethanol] | 16 | 7 | 110
2 | O=C(CO)N1CCC[C@@H](Nc2nc(-c3cnn4ccccc34)nc(-c3cccnc3)c2F)C1 [Example 62, 2-{(3R)-3-[(5-Fluoro-2-pyrazolo[1,5-a]pyridin-3-yl-6-pyridin-3-ylpyrimidin-4-yl)amino]piperidin-1-yl}-2-oxoethanol] | 7 | 1 | 4
3 | COc1nc(-c2cnn3ccccc23)nc(O[C@@H]2CCCN(C(=O)CO)C2)c1F [Example 63, 2-{(3R)-3-[(5-Fluoro-6-methoxy-2-pyrazolo[1,5-a]pyridin-3-ylpyrimidin-4-yl)oxy]piperidin-1-yl}-2-oxoethanol] | 9 | 3 | 127
4 | O=C(CO)N1CCC[C@@H](Oc2nc(-c3cnn4ccccc34)nc(OCCO)c2F)C1 [Example 65, 2-((3R)-3-{[5-Fluoro-6-(2-hydroxyethoxy)-2-pyrazolo[1,5-a]pyridin-3-ylpyrimidin-4-yl]oxy}piperidin-1-yl)-2-oxoethanol] | 9 | 2 | 38
5 | CN1CCN(c2nc(-c3cnn4ccccc34)nc(O[C@@H]3CCCN(C(=O)CO)C3)c2F)CC1 [Example 67, 2-((3R)-3-{[5-Fluoro-6-(4-methylpiperazin-1-yl)-2-pyrazolo[1,5-a]pyridin-3-ylpyrimidin-4-yl]oxy}piperidin-1-yl)-2-oxoethanol] | 23 | 5 | 139
6 | CN1CCN(c2nc(-c3cnn4ccccc34)nc(O[C@@H]3CCCN(C(=O)CC#N)C3)c2F)CC1 [Example 68, 3-((3R)-3-{[5-Fluoro-6-(4-methylpiperazin-1-yl)-2-pyrazolo[1,5-a]pyridin-3-ylpyrimidin-4-yl]oxy}piperidin-1-yl)-3-oxopropanenitrile] | 6 | 1 | 48
7 | O=C(CO)N1CCC[C@@H](Oc2nc(-c3cnn4ccccc34)nc(NCCO)c2F)C1 [Example 69, 2-[(3R)-3-({5-Fluoro-6-[(2-hydroxyethyl)amino]-2-pyrazolo[1,5-a]pyridin-3-ylpyrimidin-4-yl}oxy)piperidin-1-yl]-2-oxoethanol] | 11 | 3 | 37
8 | N#CCC(=O)N1CCC[C@@H](Oc2nc(-c3cnn4ccccc34)nc(NCCO)c2F)C1 [Example 70, 3-[(3R)-3-({5-Fluoro-6-[(2-hydroxyethyl)amino]-2-pyrazolo[1,5-a]pyridin-3-ylpyrimidin-4-yl}oxy)piperidin-1-yl]-3-oxopropanenitrile] | 8 | 3 | 28
9 | Cc1cc(-c2nc(-c3cnn4ccccc34)nc(O[C@@H]3CCCN(C(=O)CO)C3)c2F)ccn1 [Example 71, 2-((3R)-3-{[5-Fluoro-6-(2-methylpyridin-4-yl)-2-pyrazolo[1,5-a]pyridin-3-ylpyrimidin-4-yl]oxy}piperidin-1-yl)-2-oxoethanol] | 26 | 2 | 35
10 | N#CCC(=O)N1CCC[C@@H](Oc2nc(-c3cnn4ccccc34)nc(-c3ccnc(CO)c3)c2F)C1 [Example 73, 3-[(3R)-3-({5-Fluoro-6-[2-(hydroxymethyl)pyridin-4-yl]-2-pyrazolo[1,5-a]pyridin-3-ylpyrimidin-4-yl}oxy)piperidin-1-yl]-3-oxopropanenitrile] | 27 | 2 | 13
11 | O=C(CO)N1CCC[C@@H](Oc2nc(-c3cnn4ccccc34)nc(-c3ccnc(CO)c3)c2F)C1 [Example 74, 2-[(3R)-3-({5-Fluoro-6-[2-(hydroxymethyl)pyridin-4-yl]-2-pyrazolo[1,5-a]pyridin-3-ylpyrimidin-4-yl}oxy)piperidin-1-yl]-2-oxoethanol] | 4 | 1 | 3
12 | O=C(CO)N1CCC[C@@H](Oc2nc(-c3cnn4ccccc34)nc(N3CCC(O)CC3)c2F)C1 [Example 75, 1-(5-Fluoro-6-{[(3R)-1-glycoloylpiperidin-3-yl]oxy}-2-pyrazolo[1,5-a]pyridin-3-ylpyrimidin-4-yl)piperidin-4-ol] | 26 | 4 | 29
13 | N#CCC(=O)N1CCC[C@@H](Nc2nc(-c3cnn4ccccc34)nc(-c3ccnc(CO)c3)c2F)C1 [Example 78, 3-[(3R)-3-({5-Fluoro-6-[2-(hydroxymethyl)pyridin-4-yl]-2-pyrazolo[1,5-a]pyridin-3-ylpyrimidin-4-yl}amino)piperidin-1-yl]-3-oxopropanenitrile] | 1 | 0.5 | 2
14 | O=C(CO)N1CCC[C@@H](Nc2nc(-c3cnn4ccccc34)nc(-c3ccncc3)c2F)C1 [Example 80, 2-{(3R)-3-[(5-Fluoro-2-pyrazolo[1,5-a]pyridin-3-yl-6-pyridin-4-ylpyrimidin-4-yl)amino]piperidin-1-yl}-2-oxoethanol] | 4 | 1 | 2
15 | Cc1ncc(-c2nc(-c3cnn4ccccc34)nc(N[C@@H]3CCCN(C(=O)CO)C3)c2F)cn1 [Example 82, 2-{(3R)-3-[(5-Fluoro-2′-methyl-2-pyrazolo[1,5-a]pyridin-3-yl-4,5′-bipyrimidin-6-yl)amino]piperidin-1-yl}-2-oxoethanol] | 8 | 2 | 9
16 | Cc1cc(-c2nc(-c3cnn4ccccc34)nc(N[C@@H]3CCCN(C(=O)CO)C3)c2F)cc(C)n1 [Example 86, 2-((3R)-3-{[6-(2,6-Dimethylpyridin-4-yl)-5-fluoro-2-pyrazolo[1,5-a]pyridin-3-ylpyrimidin-4-yl]amino}piperidin-1-yl)-2-oxoethanol] | 1 | 3 | 1
17 | Cc1cc(-c2nc(-c3cnn4ccccc34)nc(N[C@@H]3CCCN(C(=O)CC#N)C3)c2F)cc(C)n1 [Example 87, 3-((3R)-3-{[6-(2,6-Dimethylpyridin-4-yl)-5-fluoro-2-pyrazolo[1,5-a]pyridin-3-ylpyrimidin-4-yl]amino}piperidin-1-yl)-3-oxopropanenitrile] | 3 | 1 | 10

Second part, the molecule after the results:

Row | IC50 [1] [nM] | IC50 [2] [nM] | IC50 [3] [nM] | SMILES
18 | 8 | 10 | 58 | C[C@H](CO)Oc1nc(-c2cnn3ccccc23)nc(N[C@@H]2CCCN(C(=O)CO)C2)c1F [Example 61, (2R)-2-[(5-Fluoro-6-{[(3R)-1-glycoloylpiperidin-3-yl]amino}-2-pyrazolo[1,5-a]pyridin-3-ylpyrimidin-4-yl)oxy]propan-1-ol]
19 | 4 | 3 | 28 | COc1nc(-c2cnn3ccccc23)nc(O[C@@H]2CCCN(C(=O)CC#N)C2)c1F [Example 64, 3-{(3R)-3-[(5-Fluoro-6-methoxy-2-pyrazolo[1,5-a]pyridin-3-ylpyrimidin-4-yl)oxy]piperidin-1-yl}-3-oxopropanenitrile]
20 | 6 | 1 | 6 | Cc1cc(-c2nc(-c3cnn4ccccc34)nc(O[C@@H]3CCCN(C(=O)CC#N)C3)c2F)ccn1 [Example 72, 3-((3R)-3-{[5-Fluoro-6-(2-methylpyridin-4-yl)-2-pyrazolo[1,5-a]pyridin-3-ylpyrimidin-4-yl]oxy}piperidin-1-yl)-3-oxopropanenitrile]
21 | 23 | 2 | 3 | Cc1cc(-c2nc(-c3cnn4ccccc34)nc(N(C)[C@@H]3CCCN(C(=O)CO)C3)c2F)ccn1 [Example 77, 2-{(3R)-3-[[5-Fluoro-6-(2-methylpyridin-4-yl)-2-pyrazolo[1,5-a]pyridin-3-ylpyrimidin-4-yl](methyl)amino]piperidin-1-yl}-2-oxoethanol]
22 | 2 | 1 | 3 | CN(C)c1ccc(-c2nc(-c3cnn4ccccc34)nc(N[C@@H]3CCCN(C(=O)CO)C3)c2F)cn1 [Example 81, 2-[(3R)-3-({6-[6-(Dimethylamino)pyridin-3-yl]-5-fluoro-2-pyrazolo[1,5-a]pyridin-3-ylpyrimidin-4-yl}amino)piperidin-1-yl]-2-oxoethanol]
23 | 4 | 1 | 1 | N#CCC(=O)N1CCC[C@@H](Nc2nc(-c3cnn4ccccc34)nc(-c3ccc(CO)nc3)c2F)C1 [Example 85, 3-[(3R)-3-({5-Fluoro-6-[6-(hydroxymethyl)pyridin-3-yl]-2-pyrazolo[1,5-a]pyridin-3-ylpyrimidin-4-yl}amino)piperidin-1-yl]-3-oxopropanenitrile]
24 | 4 | 1 | 14 | O=C(CO)N1CCC[C@@H](Nc2nc(-c3cnn4ccccc34)nc(-c3cncc(CO)c3)c2F)C1 [Example 88, 2-[(3R)-3-({5-Fluoro-6-[5-(hydroxymethyl)pyridin-3-yl]-2-pyrazolo[1,5-a]pyridin-3-ylpyrimidin-4-yl}amino)piperidin-1-yl]-2-oxoethanol]
25 | 3 | 1 | 5 | N#CCC(=O)N1CCC[C@@H](Nc2nc(-c3cnn4ccccc34)nc(-c3cncc(CO)c3)c2F)C1 [Example 89, 3-[(3R)-3-({5-Fluoro-6-[5-(hydroxymethyl)pyridin-3-yl]-2-pyrazolo[1,5-a]pyridin-3-ylpyrimidin-4-yl}amino)piperidin-1-yl]-3-oxopropanenitrile]
